Measurements from ChEMBL document CHEMBL4813917, “2-((1-Phenyl-1H-1,2,3-triazol-4-yl)methyl)-2-azabicyclo[3.2.1]octan-3-one derivatives: Simplification and modification of aconitine scaffold for the discovery of novel anticancer agents” (Eur J Med Chem, 2021).
Calls of active or inactive are those of the source. The calls are words filed in the database; no cut-off is given here.

Tests used:
SW-620 [1] = assay: Induction of apoptosis in human SW-620 cells assessed as early apoptotic cells at 40 nM measured after 24 hrs by Annexin V/PI staining based flow cytometry method (reference value: 1.7%); format: functional
LoVo [2] = assay: Induction of apoptosis in human LoVo cells assessed as early apoptotic cells at 20 nM measured after 24 hrs by Annexin V/PI staining based flow cytometry method (reference value: 1.6%); format: functional
SW-620 [3] = assay: Induction of apoptosis in human SW-620 cells assessed as viable cells at 80 nM measured after 24 hrs by Annexin V/PI staining based flow cytometry method (reference value: 94%); format: functional; conditions: read-out: Activity
SW-620 [4] = assay: Induction of apoptosis in human SW-620 cells assessed as necrotic cells at 80 nM measured after 24 hrs by Annexin V/PI staining based flow cytometry method (reference value: 3%); format: functional
SW-620 [5] = assay: Induction of apoptosis in human SW-620 cells assessed as early apoptotic cells at 80 nM measured after 24 hrs by Annexin V/PI staining based flow cytometry method (reference value: 1.7%); format: functional
SW-620 [6] = assay: Induction of apoptosis in human SW-620 cells assessed as increase in Bax levels at 20 to 80 nM measured after 24 hrs by Western blot assay; format: functional, cell-based; conditions: dose 20-80 nM
LoVo [7] = assay: Induction of apoptosis in human LoVo cells assessed as necrotic cells at 40 nM measured after 24 hrs by Annexin V/PI staining based flow cytometry method (reference value: 1.3%); format: functional
SW-620 [8] = assay: Induction of apoptosis in human SW-620 cells assessed as late apoptotic cells at 40 nM measured after 24 hrs by Annexin V/PI staining based flow cytometry method (reference value: 1.3%); format: functional
SW-620 [9] = assay: Induction of apoptosis in human SW-620 cells assessed as late apoptotic cells at 80 nM measured after 24 hrs by Annexin V/PI staining based flow cytometry method (reference value: 1.3%); format: functional
SW-620 [10] = assay: Induction of apoptosis in human SW-620 cells assessed as necrotic cells at 40 nM measured after 24 hrs by Annexin V/PI staining based flow cytometry method (reference value: 3%); format: functional
SW-620 [11] = assay: Induction of apoptosis in human SW-620 cells assessed as necrotic cells at 20 nM measured after 24 hrs by Annexin V/PI staining based flow cytometry method (reference value: 3%); format: functional
SW-620 [12] = assay: Cell cycle arrest in human SW-620 cells assessed as accumulation of cells in G0/G1 phase at 20 to 80 nM measured after 24 hrs by PI staining based flow cytometry method; format: functional; conditions: dose 20-80 nM
LoVo [13] = assay: Induction of apoptosis in human LoVo cells assessed as late apoptotic cells at 80 nM measured after 24 hrs by Annexin V/PI staining based flow cytometry method (reference value: 1.6%); format: functional
LoVo [14] = assay: Induction of apoptosis in human LoVo cells assessed as necrotic cells at 20 nM measured after 24 hrs by Annexin V/PI staining based flow cytometry method (reference value: 1.3%); format: functional
LoVo [15] = assay: Induction of apoptosis in human LoVo cells assessed as late apoptotic cells at 20 nM measured after 24 hrs by Annexin V/PI staining based flow cytometry method (reference value: 1.6%); format: functional
[16] = Toxicity in Balb/c mouse xenografted with human SW-620 cells assessed as changes in body weight at 5 mg/kg, ip measured after 21 days; format: organism-based; conditions: in vivo, 504 h, time 21 day
SW-620 [17] = assay: Induction of apoptosis in human SW-620 cells assessed as viable cells at 40 nM measured after 24 hrs by Annexin V/PI staining based flow cytometry method (reference value: 94%); format: functional; conditions: read-out: Activity
SW-620 [18] = assay: Inhibition of cell migration in human SW-620 cells at 20 to 80 nM measured after 24 hrs by wound healing assay; format: functional, cell-based; conditions: dose 20-80 nM
LoVo [19] = assay: Induction of apoptosis in human LoVo cells assessed as early apoptotic cells at 80 nM measured after 24 hrs by Annexin V/PI staining based flow cytometry method (reference value: 1.6%); format: functional
LoVo [20] = assay: Antiproliferative activity against human LoVo cells assessed as inhibition of cell proliferation measured after 24 hrs by MTT assay; format: functional, cell-based
[21] = Cytotoxicity against human NCM460 cells assessed as reduction in cell viability measured after 24 hrs by MTT assay; format: cell-based
SGC-7901 = assay: Antiproliferative activity against human SGC-7901 cells assessed as inhibition of cell proliferation measured after 24 hrs by MTT assay; format: functional, cell-based; conditions: SGC-7901, 24 h
[22] = target: Heat shock protein HSP 90-alpha (Homo sapiens, UniProt P07900); assay: Inhibition of recombinant human N terminal his-tagged HSP90 alpha (1 to 732 residues) expressed in Escherichia coli measured after 60 mins by Flourescence polarization assay
LoVo [23] = assay: Induction of apoptosis in human LoVo cells assessed as late apoptotic cells at 40 nM measured after 24 hrs by Annexin V/PI staining based flow cytometry method (reference value: 1.6%); format: functional
SW-620 [24] = assay: Induction of apoptosis in human SW-620 cells assessed as viable cells at 20 nM measured after 24 hrs by Annexin V/PI staining based flow cytometry method (reference value: 94%); format: functional; conditions: read-out: Activity
SW-620 [25] = assay: Antitumour activity against human SW-620 cells xenografted in Balb/c mouse assessed as inhibition of tumour growth at 5 mg/kg, ip measured after 21 days; format: functional; conditions: SW-620, ip, 504 h, time 21 day, read-out: TGI
PANC-1 = assay: Antiproliferative activity against human PANC-1 cells assessed as inhibition of cell proliferation measured after 24 hrs by MTT assay; format: functional, cell-based; conditions: PANC-1, 24 h
LoVo [26] = assay: Induction of apoptosis in human LoVo cells assessed as viable cells at 20 nM measured after 24 hrs by Annexin V/PI staining based flow cytometry method (reference value: 93.5%); format: functional; conditions: read-out: Activity
OVCAR-3 = assay: Antiproliferative activity against human OVCAR-3 cells assessed as inhibition of cell proliferation measured after 24 hrs by MTT assay; format: functional, cell-based; conditions: OVCAR-3, 24 h
SW-620 [27] = assay: Antitumour activity against human SW-620 cells xenografted in Balb/c mouse assessed as decrease in Ki67 expression in tumour at 5 mg/kg, ip measured after 21 days immunochemical staining method; format: functional, organism-based; conditions: time 21.0 day
LoVo [28] = assay: Induction of apoptosis in human LoVo cells assessed as early apoptotic cells at 40 nM measured after 24 hrs by Annexin V/PI staining based flow cytometry method (reference value: 1.6%); format: functional
SW-620 [29] = assay: Antitumour activity against human SW-620 cells xenografted in Balb/c mouse assessed as increase in cleaved-caspase 3 expression in tumour at 5 mg/kg, ip measured after 21 days immunochemical staining method; format: functional, organism-based; conditions: time 21.0 day
HepG2 = assay: Antiproliferative activity against human HepG2 cells assessed as inhibition of cell proliferation measured after 24 hrs by MTT assay; format: functional, cell-based; conditions: HepG2, 24 h
LoVo [30] = assay: Induction of apoptosis in human LoVo cells assessed as viable cells at 40 nM measured after 24 hrs by Annexin V/PI staining based flow cytometry method (reference value: 93.5%); format: functional; conditions: read-out: Activity
LoVo [31] = assay: Cell cycle arrest in human LoVo cells assessed as decrease of cells in G2/M phase at 20 to 80 nM measured after 24 hrs by PI staining based flow cytometry method; format: functional; conditions: dose 20-80 nM
[32] = Cytotoxicity against human HPDE6c7 cells assessed as reduction in cell viability measured after 24 hrs by MTT assay; format: functional

CC1(C)[C@H]2CC[C@]1(C)N(Cc1cn(-c3cccc(Br)c3)nn1)C(=O)C2
Activity (SW-620 [1]): 8.1% | Activity (LoVo [2]): 3% | viability at 0.08 µM (SW-620 [3]): 46.4% | Activity (SW-620 [4]): 3.7% | Activity (SW-620 [5]): 20.6% | Activity (SW-620 [6]): Active | Activity (LoVo [7]): 1.6% | Activity (SW-620 [8]): 15.1% | Activity (SW-620 [9]): 29.3% | Activity (SW-620 [10]): 1.3% | Activity (SW-620 [11]): 2.5% | Activity (SW-620 [12]): Active | Activity (LoVo [13]): 24.9% | Activity (LoVo [14]): 1.9% | Activity (LoVo [15]): 3.1% | Activity [16]: Non-Toxic | viability at 0.04 µM (SW-620 [17]): 75.5% | inhibition (SW-620 [18]): Dose-Dependent Effect | Activity (LoVo [19]): 7.4% | IC50 (LoVo [20]): 30 nM | CC50 at 24 h [21]: 14.6 µM | IC50 (SGC-7901): 120 nM | IC50 [22]: 0.71 nM | Activity (LoVo [23]): 5.4% | viability at 0.02 µM (SW-620 [24]): 83.9% | inhibition in vivo at 5 mg/kg (SW-620 [25]): 81.6% | IC50 (PANC-1): 90 nM | viability at 0.02 µM (LoVo [26]): 91.9% | IC50 (OVCAR-3): 30 nM | Activity (SW-620 [27]): Active | Activity (LoVo [28]): 3.2% | Activity (SW-620 [29]): Active | IC50 (HepG2): 20 nM | viability at 0.04 µM (LoVo [30]): 89.8% | Activity (LoVo [31]): Active | CC50 [32]: 13.8 µM
